Measured values published in patent publication US9248199B2, “1:1 adducts of sickle hemoglobin” (Global Blood Therapeutics, Inc., priority 2014, dated 2016).

Question: For `CCn1nccc1N(C(=O)COc1cccc(O)c1C=O)C(C)C` [compound 22, N-(1-ethyl-1H-pyrazol-5-yl)-2-(2-formyl-3-hydroxyphenoxy)-N-isopropylacetamide], which melting point is on record?
Answer: 179 to 182 °C
